According to patent US4948786A, “Composition for treatment of ischemic disorder in organs” (Takeda Chemical Industries, Ltd., priority 1988, dated 1990):
Structures can show the parent of a compound that is named as a salt.

Columns and labels:
[1] = tested on: Lipid Peroxidation in Rat Brain Homogenate; conditions: for Inhibitory Effect (%): final concentration 10^-4 M, 5% homogenate, pH 7.4, 37° C., 1 hour, vs DMSO reference, malonic dialdehyde by TBA method
Acute toxicity (LD50) = conditions: in vivo, rat
[2] = tested on: ischemic-reperfused rat heart; test: Reducing activity against the size of infarction in ischemic-reperfused rat heart; format: in vivo, rat (Wistar male); conditions: i.v.; for Size of Infarction (% of left ventrical) / Inhibition (% of Control): 30 minutes after ligation; for Size of Infarction (% of left ventrical): mean ± SEM, control 35.0 ± 2.9
Procedure: Reducing activity of α-EPC-Na(DL) against the size of infarction in ischemic-reperfused rat heart:
Wistar male rats (body weight […]) were anesthetized with pentobarbital and subjected to thoracetomy. The left anterior descending coronary artery (LAD) was ligated at its origin for 1 hour. Then, the ligation was released to allow reperfusion. After 30 to 60 minutes reperfusion, the chest was closed and the animals (rats) maintained in conscious state. After 24 hours, the animals (rats) were reanesthetized, and then the heart was excised. The left ventricles were cut parallel to the atrioventricular sulcus into slices. The slices were stained at 37° C. for 15 minutes using triphenyltetrazolium chloride, and the size of infarction was weighed.
α-EPC-Na dissolved in saline solution was administered into the femoral vein at doses of 0.3, 1 and 5 mg/kg 30 minutes after the ligation. For the control group, only saline solution was administered.

Structure (SMILES): Cc1c(C)c2c(c(C)c1OP(=O)(O)OC1=C(O)[C@@H]([C@@H](O)CO)OC1=O)CCC(C)(CCCC(C)CCCC(C)CCCC(C)C)O2 (mixture of isomers) [α-EPC-Na(DL), L-Ascorbic acid, DL-α-tocopheryl phosphate diester sodium salt]
- Inhibitory Effect (%) [1]: 61.8 ± 38.1%
- LD50 (Acute toxicity (LD50); sc, subcutaneous administration): 737 mg/kg
- LD50 (Acute toxicity (LD50); oral administration): > 10000 mg/kg
- Size of Infarction (% of left ventrical) ([2]; 0.3 mg/kg): 32.4 ± 4.3 % of left ventrical
- Inhibition (% of Control) ([2]; 1.0 mg/kg): -22.3 % of Control
- Size of Infarction (% of left ventrical) ([2]; 1.0 mg/kg): 27.2 ± 2.8 % of left ventrical
- size of myocardial infarction, reduced to ([2]; 5 mg/kg): about 50%
- Inhibition (% of Control) ([2]; 5.0 mg/kg): -47.7 % of Control
- Size of Infarction (% of left ventrical) ([2]; 5.0 mg/kg): 18.3 ± 1.1 % of left ventrical
- reduction of the size of myocardial infarction (in words) ([2]; 0.3, 1 and 5 mg/kg): reduced the size of myocardial infarction dose-dependently

Structure (SMILES): O=C1O[C@H]([C@@H](O)CO)C(O)=C1O [L-ascorbic acid, reference compound]
- inhibition of lipid peroxidation (in words) ([1]; 10^-4 M, rat brain homogenate): did not inhibit lipid peroxidation
- Inhibitory Effect (%) [1]: 1.6 ± 15.0%

Structure (SMILES): Cc1cc(OP(=O)(O)OC2=C(O)[C@@H]([C@@H](O)CO)OC2=O)c(C)c2c1OC(C)(CCCC(C)CCCC(C)CCCC(C)C)CC2 (mixture of isomers) [β-EPC-K(DL), L-Ascorbic acid DL-β-tocopheryl phosphate diester potassium salt]
- Inhibitory Effect (%) [1]: 58.9 ± 19.4%

Structure (SMILES): Cc1c(C)c2c(c(C)c1O)CCC(C)(CCCC(C)CCCC(C)CCCC(C)C)O2 (racemic) [DL-α-tocopherol, reference compound]
- Inhibitory Effect (%) [1]: 50.8 ± 18.5%

Structure (SMILES): CC(C)CCCC(C)CCCC(C)CCCC1(C)CCc2cc(OP(=O)(O)OC3=C(O)[C@@H]([C@@H](O)CO)OC3=O)ccc2O1 (mixture of isomers) [TPC-Na(DL), L-Ascorbic acid DL-tocoryl phosphate diester sodium salt]
- Inhibitory Effect (%) [1]: 35.7 ± 2.6%

Structure (SMILES): Cc1cc(OP(=O)(O)OC2=C(O)[C@@H]([C@@H](O)CO)OC2=O)cc2c1O[C@](C)(CCC[C@H](C)CCC[C@H](C)CCCC(C)C)CC2 [δ-EPC-K(D), L-ascorbic acid D-δ-tocopheryl phosphate diester]
- Inhibitory Effect (%) [1]: 38.1 ± 8.3%

Structure (SMILES): Cc1c(OP(=O)(O)OC2=C(O)[C@@H]([C@@H](O)CO)OC2=O)cc2c(c1C)O[C@](C)(CCC[C@H](C)CCC[C@H](C)CCCC(C)C)CC2 [γ-EPC-K(D), L-Ascorbic acid D-γ-tocopheryl phosphate diester potassium salt]
- Inhibitory Effect (%) [1]: 62.0 ± 8.2%
